Assay results: patent US20250019379A1, “NEW CRYSTAL FORM OF COMPOUND, AND PREPARATION METHOD THEREFOR AND USE THEREOF” (E-nitiate Biopharmaceuticals (Hangzhou) Co., Ltd, priority 2021, published 2025)
Where “and” joins values, the source holds several entries; their conditions need not be identical. Identical values can stand only once. Marks after values point to notes of the source that are not given here.

Experiments:
[1] = test system: atopic dermatitis animal model; experiment: Atopic dermatitis animal model (dinitrochlorobenzene induced); assay type: in vivo, BALB/C mice; details: for Inhibition rate of auricular thickening / Inhibition rate of skin thickening: 10th day of treatment
Description: BALB/C mice, 55 pieces, female, were 6 weeks old at the time of purchase and 8 weeks old at the time of experiment, weighing 18 g-20 g. The animals were from Shanghai Lingchang Biotechnology Co, Ltd (SCXK (Shanghai) 2018-0003), experimental animal production certificate number 20180003012342: experimental animal use license number; SYXK(Shanghai)2020-0001 (Via Biotechnology (Shanghai) Ltd.).
Modeling and administration method; Use depilatory cream to remove the hair of an area of about 5 cm×2 cm from the top of the head to the back of each animal. The application time of the depilatory cream should be controlled within 2 minutes. Wash the depilated area with warm water and wash off the depilatory agent, immediately use a hair dryer to dry the animal's hair, and place the animal on a 37° C. constant-temperature electric blanket for 1 h-2 h. After the animal moves freely, place it in a breeding cage and recover for 1 day (if the animal's skin is red, swollen and damaged after hair removal, it will its elimination). On the second day, 42 animals with normal skin were selected and randomly divided into groups according to body weight, with 6 animals in each group, totaling 7 groups. Except for the G1 normal control group, each animal in the other groups was evenly smeared with 200 μL of 0.5 wt % dinitrochlorobenzene solution (the solvent was acetone and olive oil with a mass ratio of 3:1) on the back and auricle for three consecutive days every day. Induction (the first stage of induction), the second stage of induction started after 14 days, and was induced with 1 wt % dinitrochlorobenzene solution (the solvent was acetone and olive oil with a mass ratio of 3:1) every three days until the end of the experiment, start treatment and administration at the same time, and group administration is shown in Table 6.
Skin thickness (double layer): Use a vernier caliper to measure the double layer thickness of the back skin on the 1 day before modeling, and on the 14th, 17th, 20th, 23rd, 26th, and 28th days after modeling.
Auricle thickness: Use a vernier caliper to measure the thickness of the right auricle 1 day before modeling, and on days 14, 17, 20, 23, 26, and 28 after modeling.
AD-SI score: The condition score refers to the clinical SI scoring standard, and scores three indicators: skin color/erythema, scaly erythema, scaly/peeling/lichenification, thickening, and thickening/edema degree. The total score is 12 points. Scoring standard as follows:
Erythema/skin color: 0 points, none; 1 points, slight: light red; 2 points, moderate: red; 3 points, significant: dark red; 4 points, very obvious: extremely deep red.
Scaling/peeling/lichenification: 0 points, none; 1 point, slight: there are scales/peeling/lichenification on part of the epidermis, mainly subtle; 2 points, moderate: most of the skin surface is completely or incompletely covered with Scaling/peeling/lichenification, flaky; 3 points, significant: almost all skin is covered with scales/peeling/lichenification, and the scales/peeling/lichenification are thick and layered; 4 points, very obvious: all skin is covered with Scaling/peeling/lichenification, very thick and layered.
Thickening/edema: 0 points, none: flush with normal skin; 1 points, slight: slightly higher than the normal skin surface: 2 points, moderate: moderately raised, with round or sloped plaque edges: 3 points, obvious Score: The plaque is hypertrophic and the bulge is obvious; 4 points, very significant: it is highly thickened and the bulge is very obvious. Skin/auricle hyperplasia inhibition rate (%)=1−[(skin/auricle thickness of the treatment group−skin/auricle thickness of the blank control group)/skin/auricle thickness of the negative control group−skin/auricle of the blank control group thickness)]%.
All data are expressed as Mean±SD or Mean±SEM. Use the statistical analysis software SPSS23.0 to conduct normal distribution and homogeneity of variance tests on the data. […]

[2] = Thermodynamic analysis experiment (heating, XRPD); assay type: physicochemical; details: compared with crystalline form H and crystalline form S
Description: Crystalline form H and crystalline form S were heated to appropriate temperatures under N2 protection, and after cooling to room temperature, the XRPD of the solids was measured.

[3] = 3 mg/kg oral twice a day, Day 0
[4] = 3 mg/kg oral twice a day, Day 1
[5] = 3 mg/kg oral twice a day, Day 4
[6] = 3 mg/kg oral twice a day, Day 7
[7] = 3 mg/kg oral twice a day, Day 10
[8] = 10 mg/kg oral twice a day, listed as crystalline form A
[9] = 10 mg/kg oral twice a day, Day 0
[10] = 10 mg/kg oral twice a day, Day 1
[11] = 10 mg/kg oral twice a day, Day 4
[12] = 10 mg/kg oral twice a day, Day 7
[13] = 10 mg/kg oral twice a day, Day 10
[14] = 10 mg/kg oral twice a day, Day 10, listed as crystalline form A
[15] = 30 mg/kg oral twice a day, listed as crystalline form A
[16] = 30 mg/kg oral twice a day, Day 0
[17] = 30 mg/kg oral twice a day, Day 1
[18] = 30 mg/kg oral twice a day, Day 4
[19] = 30 mg/kg oral twice a day, Day 7
[20] = 30 mg/kg oral twice a day, Day 10
[21] = 30 mg/kg oral twice a day, Day 10, listed as crystalline form A

In the case of `C[C@@H](O)c1nc2cnc3[nH]ccc3c2n1N1CCC(CC#N)CC1` [Crystalline form A, (R)-2-(1-(2-(1-hydroxyethyl)imidazo[4,5-d]pyrrolo[2,3-b]pyridine-1(6H)-yl)piperidin-4-yl)acetonitrile], the “Inhibition rate of auricular thickening” value ([1]; 3 mg/kg oral twice a day) was 37.93%, the “Inhibition rate of skin thickening” value ([1]; 3 mg/kg oral twice a day) was 14.43% and the AD-SI score [1, 3] was 0.00 points. The Average auricle thickness [1, 3] was 0.20 ± 0.00 mm, the “Average skin thickness (double layer)” value [1, 3] was 0.63 ± 0.01 mm and the AD-SI score [1, 4] was 0.00 points. The Average auricle thickness [1, 4] was 0.22 ± 0.01 mm, the “Average skin thickness (double layer)” value [1, 4] was 0.98 ± 0.01 mm and the AD-SI score [1, 5] was 1.00 ± 0.00 points. For the same molecule, the Average auricle thickness [1, 5] was 0.30 ± 0.01 mm, the “Average skin thickness (double layer)” value [1, 5] was 1.08 ± 0.01 mm and the AD-SI score [1, 6] was 6.50 ± 1.05 points. The Average auricle thickness [1, 6] was 0.39 ± 0.03 mm, the “Average skin thickness (double layer)” value [1, 6] was 1.85 ± 0.12 mm and the AD-SI score [1, 7] was 5.83 ± 0.75 points. The Average auricle thickness [1, 7] was 0.57 ± 0.04 mm and 0.57 mm, the “Average skin thickness (double layer)” value [1, 7] was 2.35 ± 0.15 mm and 2.35 mm and the “Inhibition rate of auricular thickening” value ([1]; 10 mg/kg oral twice a day) was 43.10%. For the same molecule, the “Inhibition rate of skin thickening” value ([1]; 10 mg/kg oral twice a day) was 20.40%, the “Inhibition rate of auricular thickening” value [1, 8] was 43.1% and the “Inhibition rate of skin thickening” value [1, 8] was 20.4%. The AD-SI score [1, 9] was 0.00 points, the Average auricle thickness [1, 9] was 0.20 ± 0.01 mm and the “Average skin thickness (double layer)” value [1, 9] was 0.60 ± 0.02 mm. The AD-SI score [1, 10] was 0.00 points, the Average auricle thickness [1, 10] was 0.23 ± 0.01 mm and the “Average skin thickness (double layer)” value [1, 10] was 0.94 ± 0.02 mm. The AD-SI score [1, 11] was 0.50 ± 0.55 points, the Average auricle thickness [1, 11] was 0.32 ± 0.01**^ mm and the “Average skin thickness (double layer)” value [1, 11] was 1.14 ± 0.04 mm. For the same molecule, the AD-SI score [1, 12] was 5.83 ± 1.17 points, the Average auricle thickness [1, 12] was 0.43 ± 0.03 mm and the “Average skin thickness (double layer)” value [1, 12] was 1.49 ± 0.09 mm. The AD-SI score [1, 13] was 4.67 ± 0.52 points, the Average auricle thickness [1, 13] was 0.54 ± 0.07 mm and 0.54 mm and the “Average skin thickness (double layer)” value [1, 13] was 2.23 ± 0.17 mm and 2.23 mm. The AD-SI score [1, 14] was 4.67 points, the Average auricle thickness [1, 14] was 0.54 mm and the “Average skin thickness (double layer)” value [1, 14] was 2.23 mm. For the same molecule, the “Inhibition rate of auricular thickening” value ([1]; 30 mg/kg oral twice a day) was 50.00%, the “Inhibition rate of skin thickening” value ([1]; 30 mg/kg oral twice a day) was 53.73% and the “Inhibition rate of auricular thickening” value [1, 15] was 50%. For the same molecule, the “Inhibition rate of skin thickening” value [1, 15] was 53.73%, the AD-SI score [1, 16] was 0.00 points and the Average auricle thickness [1, 16] was 0.21 ± 0.01 mm. For the same molecule, the “Average skin thickness (double layer)” value [1, 16] was 0.62 ± 0.02 mm, the AD-SI score [1, 17] was 0.00 points and the Average auricle thickness [1, 17] was 0.22 ± 0.01 mm. For the same molecule, the “Average skin thickness (double layer)” value [1, 17] was 0.79 ± 0.05 mm, the AD-SI score [1, 18] was 0.50 ± 0.55 points and the Average auricle thickness [1, 18] was 0.29 ± 0.02 mm. The “Average skin thickness (double layer)” value [1, 18] was 1.05 ± 0.03 mm, the AD-SI score [1, 19] was 3.00 ± 2.19 points and the Average auricle thickness [1, 19] was 0.32 ± 0.01 mm. For the same molecule, the “Average skin thickness (double layer)” value [1, 19] was 1.01 ± 0.08 mm, the AD-SI score [1, 20] was 3.50 ± 1.39 points and the Average auricle thickness [1, 20] was 0.50 ± 0.03 mm and 0.50 mm. The “Average skin thickness (double layer)” value [1, 20] was 1.56 ± 0.21 mm and 1.56 mm, the AD-SI score [1, 21] was 3.5 points and the Average auricle thickness [1, 21] was 0.5 mm. For the same molecule, the “Average skin thickness (double layer)” value [1, 21] was 1.56 mm and the thermodynamic stability [2] was “thermodynamically more stable”.
